Active and inactive are the calls of the source. No cut-off for these calls is given here. A value given as a limit tells only on which side of the number the result lay.

The subject of the first experiment is Orobanche cernua var. cumana. As to the kind of experiment: Induction of Orobanche cernua var. cumana seed germination at 100 uM after 6 days. Type of experiment: functional.
Take `CC1=C[C@H](O/C=C2/C(=O)O[C@@H]3c4ccccc4C[C@H]23)OC1=O`: the Activity came to 50%.

For a further experiment, the system named is Phelipanche ramosa. As to the kind of experiment: Induction of Orobanche ramosa seed germination at 100 uM after 6 days. It is filed as functional.
Compound `CC1=C[C@H](O/C=C2/C(=O)O[C@@H]3c4ccccc4C[C@H]23)OC1=O` yielded an Activity of 65%.

A further experiment has as its system Orobanche crenata. Briefly: Induction of Orobanche crenata seed germination at 100 uM after 6 days. It is filed as functional.
For `CC1=C[C@H](O/C=C2/C(=O)O[C@@H]3c4ccccc4C[C@H]23)OC1=O`, the Activity was 80%.

The next experiment concerns Orobanche crenata. Briefly: Induction of Orobanche crenata seed germination after 6 days. Type of experiment: functional.
For `CC1=C[C@H](O/C=C2/C(=O)O[C@@H]3C4=C(CCC[C@@H]4C)C[C@H]23)OC1=O` [SORGOLACTONE], the Activity is greater than 40%.

Another experiment has as its system Orobanche minor. Briefly: Induction of Orobanche minor seed germination at 0.001 uM after 6 days. It is filed as functional.
For `COC(=O)/C(=C/O[C@H]1C=C(C)C(=O)O1)N1C(=O)c2ccccc2C1=O` [NIJMEGEN-1], the Activity worked out at 0%.
The compound `CC1=C[C@H](O/C=C2/C(=O)O[C@@H]3C4=C(C[C@H]23)[C@@H](O)CCC4(C)C)OC1=O` [STRIGOL] came in with an Activity greater than 40%.
In the case of `CC1=C[C@H](O/C=C2/C(=O)O[C@@H]3C4=C(CCCC4(C)C)[C@@H](O)[C@H]23)OC1=O` [OROBANCHOL], the Activity is on record as greater than 40%.
On the same count and under the same terms, the value for `CC1=CC(O/C=C2/C(=O)OC3C2C=C2CCCC(C)(C)C23O)OC1=O` (stereo unspecified) [ALECTROL] was greater than 40%.

The subject of a further experiment is Orobanche cernua var. cumana. As to the kind of experiment: Induction of Orobanche cernua var. cumana seed germination at 10 uM after 6 days. Type of experiment: functional.
Regarding `C=C1C(=O)O[C@H]2[C@H]1CC[C@@]1(C)[C@H](O)CC=C(C)[C@]21O`, the result was inactive.
Same read-out and setting: the result for `C=C1CC[C@@H](O)[C@]2(C)CC[C@H]3C(=C)C(=O)O[C@@H]3[C@@H]12` [REYNOSIN] reads 0%.
The same measure, in the same setting: the result for `CC1=C[C@@H](O/C=C2/C(=O)O[C@H]3C=CC[C@@H]23)OC1=O` reads 0%; that for `C=C1C2[C@H]3OC(=O)C(=C)[C@@H]3CC[C@@]2(C)[C@H](O)C[C@H]1O` (stereo partly specified), “inactive”.
The same measure, in the same setting: the result for `C=C1C(=O)O[C@@H]2C3O[C@]3(C)CC/C=C(\C)CC[C@@H]12` (stereo partly specified) reads greater than 40%; that for `C=C1[C@@H]2[C@H]3OC(=O)C(=C)[C@@H]3CCC(=C)[C@@H]2C[C@H]1O` [ISOZALUZANIN C], greater than 40%; that for `C=C1CC[C@H]2[C@H](CO)C(=O)O[C@@H]2C2C(=C)CCC12` (stereo partly specified), greater than 40%.
On to `CC1=C[C@H](O/C=C2/C(=O)O[C@@H]3c4ccccc4C[C@H]23)OC1=O`, for which the Activity was determined as 65%.
Regarding `C=C1CC[C@H]2[C@H](CO)C(=O)O[C@@H]2C2C(=C)[C@H](O)CC12` (stereo partly specified), the Activity is greater than 40%.
The same measure, in the same setting: the value for `C=C1C(=O)O[C@H]2[C@H]1CCC(=C)[C@]1(O)C[C@@H](O)C(=C)[C@]21O` was 0%; that for `C=C1C(=O)O[C@@H]2/C=C(\C)CC/C=C(/CO)CC[C@@H]12` was 0%.
Compound `C=C1C(=O)O[C@@H]2/C=C(\C)CC[C@H]3O[C@]3(C)CC[C@@H]12` [1,10-EPOXYCOSTUNOLIDE] returned an Activity greater than 40%.
The same measure, in the same setting: the value for `C/C1=C\CC[C@@]2(C)O[C@@H]2[C@H]2OC(=O)[C@](C)(O)[C@@H]2CC1` was 0%.

The record behind these values is ChEMBL document CHEMBL3045114, “SAR studies of sesquiterpene lactones as Orobanche cumana seed germination stimulants” (2002).
